PubChem BioAssay (NCI)
Values joined by “and” are separate entries in the source; they are usually repeats but may differ in a detail not shown here. Equal values may be shown once.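 Cells were grown in 96-well plates and exposed to each compound for 48 hours at five concentrations; endpoints were interpolated linearly between bracketing concentrations, or set to the highest concentration if not reached. GI50: concentration for 50% inhibition of growth. Definition used: TGI = concentration required for complete inhibition of growth.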

Experiments:
Assay in all cases: NCI tumour cell line growth inhibition, 48 h
[1] = test system: HOP-92 NSCLC
[2] = test system: K-562 leukemia
[3] = test system: MALME-3M melanoma
[4] = test system: ACHN renal
[5] = test system: A498 renal
[6] = test system: BT-549 breast
[7] = test system: TK-10 renal
[8] = test system: MDA-N
[9] = test system: EKVX NSCLC
[10] = test system: NCI-H226 lung
[11] = test system: OVCAR-5 ovarian
[12] = test system: SF-268 CNS
[13] = test system: HS 578T breast
[14] = test system: NCI-H460 lung
[15] = test system: 786-0 renal
[16] = test system: SK-MEL-5 melanoma
[17] = test system: OVCAR-3 ovarian
[18] = test system: PC-3 prostate
[19] = test system: U251 CNS
[20] = test system: HCC-2998 colon
[21] = test system: HCT-15 colon
[22] = test system: HCT-116 colon
[23] = test system: SK-OV-3 ovarian
[24] = test system: NCI/ADR-RES ovarian
[25] = test system: NCI-H522 lung
[26] = test system: SW-620 colon
[27] = test system: KM12 colon
[28] = test system: SNB-75 CNS
[29] = test system: SK-MEL-2 melanoma
[30] = test system: MDA-MB-231 breast
[31] = test system: IGROV1 ovarian
[32] = test system: LOX IMVI melanoma
[33] = test system: UACC-62 melanoma
[34] = test system: T-47D breast
[35] = test system: CAKI-1 renal
[36] = test system: SF-295 CNS
[37] = test system: DU-145 prostate
[38] = test system: SR leukemia
[39] = test system: OVCAR-4 ovarian
[40] = test system: OVCAR-8 ovarian
[41] = test system: SN12C renal
[42] = test system: M14 melanoma
[43] = test system: UACC-257 melanoma
[44] = test system: NCI-H23 lung
[45] = test system: A549 NSCLC
[46] = test system: RXF 393 renal
[47] = test system: RPMI-8226 leukemia
[48] = test system: SK-MEL-28 melanoma
[49] = test system: MCF7 breast
[50] = test system: HT29 colon
[51] = test system: COLO 205 colon
[52] = test system: MDA-MB-435
[53] = test system: CCRF-CEM leukemia
[54] = test system: HOP-62 NSCLC
[55] = test system: SNB-19 CNS
[56] = test system: SF-539 CNS
[57] = test system: UO-31 renal
[58] = test system: MOLT-4 leukemia
[59] = test system: HL-60(TB) leukemia

In the case of `CNC(=O)Nc1cc2c3c(c1)CCCN3CCC2`, the TGI [1] was > 10 µM, the TGI [2] was > 10 µM and the TGI [3] was > 10 µM. The TGI [4] was > 10 µM, the TGI [5] was > 10 µM and the TGI [6] was > 10 µM. The TGI [7] was > 10 µM, the TGI [8] was > 10 µM and the TGI [9] was > 10 µM. For the same compound, the TGI [10] was > 10 µM, the TGI [11] was > 10 µM and the TGI [12] was > 10 µM. For the same compound, the TGI [13] was > 10 µM, the TGI [14] was > 10 µM and the TGI [15] was > 10 µM. For the same compound, the TGI [16] was > 10 µM, the TGI [17] was > 10 µM and the TGI [18] was > 10 µM. For the same compound, the TGI [19] was > 10 µM, the TGI [20] was > 10 µM and the TGI [21] was > 10 µM. For the same compound, the TGI [22] was > 10 µM, the TGI [23] was > 10 µM and the TGI [24] was > 10 µM. The TGI [25] was > 10 µM, the TGI [26] was > 10 µM and the TGI [27] was > 10 µM. For the same compound, the TGI [28] was > 10 µM, the TGI [29] was > 10 µM and the TGI [30] was > 10 µM. For the same compound, the TGI [31] was > 10 µM, the TGI [32] was > 10 µM and the TGI [33] was > 10 µM. The TGI [34] was > 10 µM, the TGI [35] was > 10 µM and the TGI [36] was > 10 µM. For the same compound, the TGI [37] was > 10 µM, the TGI [38] was > 10 µM and the TGI [39] was > 10 µM. The TGI [40] was > 10 µM, the TGI [41] was > 10 µM and the TGI [42] was > 10 µM. For the same compound, the TGI [43] was > 10 µM, the TGI [44] was > 10 µM and the TGI [45] was > 10 µM. The TGI [46] was > 10 µM, the TGI [47] was > 10 µM and the TGI [48] was > 10 µM. The TGI [49] was > 10 µM, the TGI [50] was > 10 µM and the TGI [51] was > 10 µM. The TGI [52] was > 10 µM, the TGI [53] was > 10 µM and the TGI [54] was > 10 µM. The TGI [55] was > 10 µM and the TGI [56] was > 10 µM.
`COC(=O)c1cc(C#N)[nH]c1-c1ccsc1` was tested, and the TGI [1] was > 100 µM, the TGI [2] was > 100 µM and the TGI [3] was > 100 µM. For the same compound, the TGI [4] was > 100 µM, the TGI [5] was > 100 µM and the TGI [57] was > 100 µM. For the same compound, the TGI [6] was > 100 µM, the TGI [7] was > 100 µM and the TGI [8] was > 100 µM. For the same compound, the TGI [9] was > 100 µM, the TGI [10] was > 100 µM and the TGI [11] was > 100 µM. The TGI [12] was > 100 µM, the TGI [13] was > 100 µM and the TGI [15] was > 100 µM. The TGI [58] was > 100 µM, the TGI [16] was > 100 µM and the TGI [17] was > 100 µM. For the same compound, the TGI [18] was > 100 µM, the TGI [19] was > 100 µM and the TGI [20] was > 100 µM. The TGI [21] was > 100 µM, the TGI [22] was > 100 µM and the TGI [23] was > 100 µM. The TGI [24] was > 100 µM, the TGI [25] was > 100 µM and the TGI [26] was > 100 µM. For the same compound, the TGI [27] was > 100 µM, the TGI [28] was > 100 µM and the TGI [29] was > 100 µM. The TGI [30] was > 100 µM, the TGI [31] was > 100 µM and the TGI [32] was > 100 µM. For the same compound, the TGI [33] was > 100 µM, the TGI [34] was > 100 µM and the TGI [35] was > 100 µM. For the same compound, the TGI [36] was > 100 µM, the TGI [37] was > 100 µM and the TGI [38] was > 100 µM. For the same compound, the TGI [39] was > 100 µM, the TGI [40] was > 100 µM and the TGI [41] was > 100 µM. For the same compound, the TGI [59] was 48.7 µM, the TGI [42] was > 100 µM and the TGI [43] was > 100 µM. For the same compound, the TGI [44] was > 100 µM, the TGI [45] was > 100 µM and the TGI [46] was > 100 µM. The TGI [47] was > 100 µM, the TGI [48] was > 100 µM and the TGI [49] was > 100 µM. For the same compound, the TGI [50] was > 100 µM, the TGI [51] was > 100 µM and the TGI [52] was > 100 µM. For the same compound, the TGI [53] was > 100 µM and the TGI [54] was > 100 µM.
In the case of `O=S(=O)(/C=C/C=C/S(=O)(=O)c1ccccc1)c1ccccc1`, the TGI [1] was 2.77 µM and 3.35 µM, the GI50 [2] was 0.179 µM and the TGI [2] was 1.26 µM and 0.516 µM. For the same compound, the GI50 [3] was 1.54 µM, the TGI [3] was 2.8 µM and 3.01 µM and the TGI [4] was 2.06 µM and 2.05 µM. For the same compound, the TGI [57] was 2.92 µM and 3.32 µM, the TGI [6] was 3.15 µM and the GI50 [7] was 1.35 µM. For the same compound, the TGI [7] was 2.95 µM and 2.69 µM, the GI50 [8] was 1.4 µM and the TGI [8] was 2.88 µM and 7.28 µM. It also gave a TGI [9] of 3.53 µM, a GI50 [10] of 1.24 µM and a TGI [10] of 4.85 µM. The GI50 [11] was 1.9 µM, the TGI [11] was 5.28 µM and the GI50 [12] was 2.51 µM. The TGI [12] was 8.06 µM and 5.4 µM, the GI50 [13] was 2.93 µM and the TGI [13] was 8.24 µM and 8.07 µM. The GI50 [14] was 4.01 µM, the TGI [14] was 16.9 µM and the GI50 [15] was 0.956 µM. The TGI [15] was 1.1 µM and 2.22 µM, the TGI [58] was 1.85 µM and the GI50 [16] was 1.49 µM. The TGI [16] was 2.68 µM and 2.98 µM, the GI50 [17] was 1.46 µM and the TGI [17] was 1.82 µM and 2.9 µM. For the same compound, the GI50 [18] was 1.9 µM, the TGI [18] was 7.38 µM and 3.98 µM and the GI50 [19] was 2.7 µM. The TGI [19] was 11 µM, the TGI [20] was 25.1 µM and the GI50 [21] was 0.189 µM. The TGI [21] was 2.7 µM and 0.795 µM, the GI50 [22] was 0.606 µM and the TGI [22] was 2.8 µM and 1.95 µM. For the same compound, the TGI [23] was 19.9 µM, the GI50 [24] was 2.16 µM and the TGI [24] was 3.89 µM and 4.68 µM. For the same compound, the GI50 [25] was 0.196 µM, the TGI [25] was 0.728 µM and 0.601 µM and the GI50 [26] was 0.316 µM. The TGI [26] was 0.433 µM and 2.26 µM, the GI50 [27] was 11.1 µM and the TGI [27] was 4.25 µM and 23.5 µM. It also gave a GI50 [28] of 13.9 µM, a TGI [28] of 26.8 µM and a GI50 [29] of 1.4 µM. For the same compound, the TGI [29] was 5.68 µM and 3.47 µM, the GI50 [30] was 1.87 µM and the TGI [30] was 3.37 µM and 3.73 µM. For the same compound, the GI50 [31] was 1.39 µM, the TGI [31] was 3.57 µM and the GI50 [32] was 1.42 µM. The TGI [32] was 2.42 µM and 3.33 µM, the GI50 [33] was 0.352 µM and the TGI [33] was 2.43 µM and 1.88 µM. The TGI [34] was 2.69 µM, the GI50 [35] was 1.04 µM and the TGI [35] was 2.54 µM and 2.25 µM. For the same compound, the TGI [36] was 22.2 µM, the TGI [37] was 27.7 µM and the TGI [38] was 2.29 µM and 0.934 µM. For the same compound, the TGI [39] was 3.28 µM and 3.18 µM, the GI50 [40] was 2.61 µM and the TGI [40] was 2.12 µM and 5.95 µM. The TGI [41] was 4.16 µM, the GI50 [59] was 0.188 µM and the TGI [59] was 2.04 µM and 0.518 µM. The GI50 [42] was 0.801 µM, the TGI [42] was 1.12 µM and 2.06 µM and the GI50 [43] was 2 µM. The TGI [43] was 1.9 µM and 4.82 µM, the GI50 [44] was 1.06 µM and the TGI [44] was 3.14 µM and 2.62 µM. The GI50 [45] was 3.97 µM, the TGI [45] was 15.2 µM and the TGI [46] was 0.809 µM and 1.45 µM. The TGI [47] was 1.66 µM, the GI50 [48] was 2.49 µM and the TGI [48] was 1.96 µM and 5.79 µM. The GI50 [49] was 0.525 µM, the TGI [49] was 3.81 µM and 2.3 µM and the GI50 [50] was 1.4 µM. The TGI [50] was 2.69 µM and 2.85 µM, the GI50 [51] was 1.02 µM and the TGI [51] was 2.77 µM and 2.71 µM. For the same compound, the GI50 [52] was 1.04 µM, the TGI [52] was 4.21 µM and 4.19 µM and the TGI [53] was 0.691 µM and 0.424 µM. It also gave a GI50 [54] of 8.81 µM, a TGI [54] of 20.9 µM and a TGI [55] of 31.2 µM. The GI50 [56] was 2.14 µM and the TGI [56] was 4.43 µM.
